The test system of data set [1] is Trichophyton rubrum B68183. Description: Antifungal activity in vitro (resazurin susceptibility screen), Inf. C. The format is cell-based. The following applies: Trichophyton rubrum B68183; 27 °C, 7 days, resa time 24 hours; read-out: Inf. C pIC50 (converted). In outline:
(§1)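 First, serial dilutions of test compound are spotted onto plates, which may be stored dark at 4 °C for up to 2 weeks. Next, each well gets 10^3 cfu of fungus from cryopreserved stock diluted 1/1000 in medium. Untreated culture and RPMI-MOPS alone serve as plate controls.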
On the technique in general: The colour change of resazurin is a common sign of viable cells or microbes.

Data set [2] is described as follows: Liver metabolic stability assay, hLM. It is filed as in vitro ADME, human. The following applies: human liver microsomes, 1 mg protein/ml, 5 μM test compound, 15 min, 37 °C. Here is the method:
(§2) Liver preparations (microsomal fractions) were obtained from BD Gentest (San Jose, Calif., US). Metabolic stability was assessed using the following assay conditions. […] The mixture was pre-incubated at 37° C. for 5 min and the enzymatic reaction was started by addition of 5 μM test compound. After 0 (control) and 15 minutes (min), the reactions were terminated by addition of […] (500 μl). The precipitated material was removed by centrifugation at 1200 g for 10 min. The supernatant was analysed by LC-MS/MS on a ThermoFinnigan LCQ Deca XP ion-trap mass spectrometer equipped with an atmospheric pressure chemical ionisation source. Calculation of %-compound remaining was as described by Kantharaj et al. 2003 ((Kantharaj E., Tuytelaars A, Proost P E A, Ongel Z, van […] (2003). Simultaneous measurement of drug metabolic stability and identification of metabolites using ion-trap mass spectrometry.

The nature of data set [3]: Liver metabolic stability assay, gpLM. The format is in vitro ADME, guinea pig. The following applies: guinea pig microsomes, 1 mg protein/ml, 5 μM test compound, 15 min, 37 °C. Here is the method: as §2
Data set [4] relates to Aspergillus fumigatus B42928. In words: Antifungal activity in vitro (resazurin susceptibility screen), Inf. E. It is filed as cell-based. The following applies: Aspergillus fumigatus B42928; 27 °C, 48 hours, resa time 17 hours; read-out: Inf. E pIC50 (converted). In short, it runs like this: as §1
A short description of data set [5]: Liver metabolic stability assay, mLM. The format is in vitro ADME. The following applies: mouse liver microsomes, 1 mg protein/ml, 5 μM test compound, 15 min, 37 °C. Here is the method: as §2
Data set [6] deals with Sporothrix schenkii B62482. Description: Antifungal activity in vitro (resazurin susceptibility screen), Inf. A. The format is cell-based. The following applies: Sporothrix, B62482, Sporothrix schenkii B62482; 27 °C, 4 days, resa time 24 hours; highest in-test concentration 64 μM; read-out: Inf. A pIC50 (converted). In outline:
as §1

Data set [7] concerns Cryptococcus neoformans B66663. Description: Antifungal activity in vitro (resazurin susceptibility screen), Inf. F. It is filed as cell-based. The following applies: Cryptococcus neoformans, B66663, Cryptococcus neoformans B66663; 37 °C, 24 hours, resa time 4 hours; read-out: Inf. F pIC50 (converted). In outline:
as §1

Data set [8] has as its system Trichophyton mentagrophytes B70554. In words: Antifungal activity in vitro (resazurin susceptibility screen), Inf. G. The following applies: Trichophyton mentagrophytes, B70554, Trichophyton mentagrophytes B70554; 27 °C, 7 days, resa time 24 hours; read-out: Inf. G pIC50 (converted). The format is cell-based. In short, it runs like this:
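Each well was inoculated with 10^3 cfu of fungus onto dried, pre-spotted compound serial dilutions in RPMI-MOPS medium, with fungal growth read by resazurin. Growth was referenced to drug-free culture (100%) and medium-only (0%) controls on each plate.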

Another data set has as its target T1, Cytochrome P450 1A2 (Homo sapiens, UniProt P05177).
T1 sequence (P05177 1-516): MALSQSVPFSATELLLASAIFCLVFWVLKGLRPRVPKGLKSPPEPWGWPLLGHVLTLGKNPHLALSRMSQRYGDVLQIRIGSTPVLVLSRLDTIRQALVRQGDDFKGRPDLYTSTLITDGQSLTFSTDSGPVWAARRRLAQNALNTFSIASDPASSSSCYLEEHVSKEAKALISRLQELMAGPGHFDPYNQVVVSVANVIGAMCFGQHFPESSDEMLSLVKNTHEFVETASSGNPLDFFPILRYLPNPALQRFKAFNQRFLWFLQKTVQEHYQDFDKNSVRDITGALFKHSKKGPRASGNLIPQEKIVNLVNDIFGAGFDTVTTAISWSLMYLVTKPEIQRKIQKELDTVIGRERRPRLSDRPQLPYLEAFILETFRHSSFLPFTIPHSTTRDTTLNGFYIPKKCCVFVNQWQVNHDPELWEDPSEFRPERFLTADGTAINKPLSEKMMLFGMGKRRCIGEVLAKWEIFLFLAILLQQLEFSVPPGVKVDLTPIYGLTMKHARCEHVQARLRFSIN
In words: Human liver microsomal cytochrome P450 cocktail inhibition assay, Protocol C. Here is the method:
(§3) Probe substrates and final assay concentrations with the appropriate internal standard are outlined in Table 6a.
(§4) Assays were performed in 0.1 M phosphate buffer (pH 7.4), containing 0.2 mg/ml human liver microsomes (BD Gentest) and a probe substrate mix consisting of: phenacetin, tolbutamide, S-mephenyloin, dextromethorphan, amodiaquine and midazolam (Table 6a) and a range of test compound concentrations (0 to 30 micromolar) in a total volume of 100 microliters. After a 10 min pre-incubation at 37° C., the reaction was started with addition of NADPH at a final concentration of 1.0 mM. […] The samples are centrifuged for 10 min at 4° C. at 4000 rpm and 60 microliters supernatant is diluted with 180 microliters water. Each sample is injected onto a UPLC/MS system for the simultaneous measurement of the probe substrate metabolites and their associated deuterated internal standards. Percentage inhibition is calculated according to: %-inhibition=(1−Ri/R)*100, whereby Ri and R are the metabolite to internal standard peak area ratios in the presence and absence of inhibitor respectively.
(§5) Percentage inhibition data are plotted against the Log transformed test compound concentration and after curve fitting the IC50-value is determined.

The next data set concerns the target Cytochrome P450 2C19 (Homo sapiens, UniProt P33261). The data set is described as above. The following applies: 2C19_S-Meph pIC50, human liver microsomes 0.2 mg/ml; probe S-mephenytoin 30 microM. Here is the method:
as §3, §4, §5

Another data set has as its target Cytochrome P450 2D6 (Homo sapiens, UniProt P10635). Described as above. The following applies: 2D6_Dextro pIC50, human liver microsomes 0.2 mg/ml; probe dextromethorphan 3 microM. Here is the method: as §3, §4, §5
In general terms: Liver microsomes are vesicles of endoplasmic reticulum, rich in cytochrome P450 enzymes.

A further data set addresses Cytochrome P450 2C9 (Homo sapiens, UniProt P11712). The description is as above. The following applies: 2C9 Tolbut pIC50, human liver microsomes 0.2 mg/ml; probe tolbutamide 100 microM. Here is the method: as §3, §4, §5
The target of another data set is T2, Cytochrome P450 2C8 (Homo sapiens, UniProt P10632).
T2 construct: tissue BD Gentest; host or cells: human liver microsomes
T2 sequence (P10632 1-490): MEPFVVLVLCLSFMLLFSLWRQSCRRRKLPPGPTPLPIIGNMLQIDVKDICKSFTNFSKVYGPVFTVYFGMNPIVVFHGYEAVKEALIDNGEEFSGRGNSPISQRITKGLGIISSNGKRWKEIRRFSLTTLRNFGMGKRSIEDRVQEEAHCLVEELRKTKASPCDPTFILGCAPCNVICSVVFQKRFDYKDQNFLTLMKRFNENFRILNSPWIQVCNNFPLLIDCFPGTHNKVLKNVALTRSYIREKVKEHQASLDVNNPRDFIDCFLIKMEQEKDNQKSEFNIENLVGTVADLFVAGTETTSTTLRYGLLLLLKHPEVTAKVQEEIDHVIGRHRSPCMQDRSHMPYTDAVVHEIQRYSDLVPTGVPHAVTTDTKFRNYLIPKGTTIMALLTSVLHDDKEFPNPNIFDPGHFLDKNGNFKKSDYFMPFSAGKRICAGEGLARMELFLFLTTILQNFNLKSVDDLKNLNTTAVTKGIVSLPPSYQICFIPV
The data set is described as above. The format is in vitro ADME. The following applies: human liver microsomes 0.2 mg/ml; probe amodiaquine 2 microM; read-out: 2C8_Amod pIC50 (converted). Here is the method: as §3, §4, §5

Chain of Cytochrome P450 2D6 (P10635 whole entry): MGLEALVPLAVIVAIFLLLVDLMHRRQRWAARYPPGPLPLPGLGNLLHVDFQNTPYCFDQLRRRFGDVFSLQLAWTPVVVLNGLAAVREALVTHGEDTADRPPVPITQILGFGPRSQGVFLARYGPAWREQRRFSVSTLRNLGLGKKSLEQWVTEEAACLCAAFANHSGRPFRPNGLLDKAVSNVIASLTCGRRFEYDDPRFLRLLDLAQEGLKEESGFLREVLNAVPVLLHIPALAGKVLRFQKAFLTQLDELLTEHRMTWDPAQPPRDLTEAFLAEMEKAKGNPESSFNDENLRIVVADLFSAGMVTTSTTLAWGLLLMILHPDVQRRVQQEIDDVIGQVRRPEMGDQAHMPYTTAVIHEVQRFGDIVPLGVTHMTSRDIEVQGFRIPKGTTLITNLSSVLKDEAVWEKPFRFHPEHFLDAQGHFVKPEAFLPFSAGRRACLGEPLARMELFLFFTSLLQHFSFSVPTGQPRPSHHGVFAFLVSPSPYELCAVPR
Chain of Cytochrome P450 2C19 (P33261 whole entry): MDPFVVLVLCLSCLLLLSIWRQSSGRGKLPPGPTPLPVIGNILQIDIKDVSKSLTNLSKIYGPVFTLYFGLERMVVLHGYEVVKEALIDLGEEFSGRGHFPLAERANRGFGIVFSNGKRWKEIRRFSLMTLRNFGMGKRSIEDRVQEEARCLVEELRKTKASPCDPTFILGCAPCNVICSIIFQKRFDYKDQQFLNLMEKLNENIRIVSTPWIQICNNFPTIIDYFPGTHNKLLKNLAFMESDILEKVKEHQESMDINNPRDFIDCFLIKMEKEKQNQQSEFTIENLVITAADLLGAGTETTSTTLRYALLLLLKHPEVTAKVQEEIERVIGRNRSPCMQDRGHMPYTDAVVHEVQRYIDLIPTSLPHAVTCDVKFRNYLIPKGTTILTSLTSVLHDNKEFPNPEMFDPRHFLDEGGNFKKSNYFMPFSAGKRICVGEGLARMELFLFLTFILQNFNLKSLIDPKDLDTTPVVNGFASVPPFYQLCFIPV
Chain of Cytochrome P450 2C9 (P11712 whole entry): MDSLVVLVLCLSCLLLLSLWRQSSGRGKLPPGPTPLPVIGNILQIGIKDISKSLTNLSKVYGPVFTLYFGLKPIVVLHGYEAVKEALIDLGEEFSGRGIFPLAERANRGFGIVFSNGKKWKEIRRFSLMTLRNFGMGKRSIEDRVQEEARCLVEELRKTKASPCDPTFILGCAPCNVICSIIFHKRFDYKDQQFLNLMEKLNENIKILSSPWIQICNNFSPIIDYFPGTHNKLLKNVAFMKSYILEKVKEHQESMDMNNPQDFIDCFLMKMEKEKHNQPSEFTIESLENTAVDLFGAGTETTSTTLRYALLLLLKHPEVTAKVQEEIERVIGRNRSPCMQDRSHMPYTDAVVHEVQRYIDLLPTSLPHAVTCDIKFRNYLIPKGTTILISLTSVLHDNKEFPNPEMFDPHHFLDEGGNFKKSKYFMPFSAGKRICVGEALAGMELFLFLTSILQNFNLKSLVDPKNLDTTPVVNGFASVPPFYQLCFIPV

With `CC(=O)c1ccc(C2NCc3c(Cl)cccc3-n3cccc32)cc1.Cl` (centres unmarked) [Compound 5, 1-[4-(7-chloro-5,6-dihydro-4H-pyrrolo[1,2-a][1,4]benzodiazepin-4-yl)phenyl]-ethanone .HCl], the IC50 in data set [1] is 0.501 µM; in data set [4], 2 µM; in data set [6] it was 39.8 µM; in data set [7], 25.1 µM; in data set [8], 0.631 µM. Moreover, the “%-compound metabolised_Met_hLM” value in data set [2] is 59%. Besides, the “%-compound metabolised Met_gpLM” value in [3] is 88%. Further, the “%-compound metabolised Met_mLM” value in data set [5] was found to be 72%.

Regarding `CC(=O)c1ccc(C2=NCc3c(Cl)cccc3-n3cccc32)cc1` [drawing 91], the IC50 at Cytochrome P450 1A2, on Cytochrome P450 2C19, at Cytochrome P450 2D6, on Cytochrome P450 2C9 and on Cytochrome P450 2C8 was over 10 µM throughout.

For the molecule `CCc1ccc(C2=NCc3c(Cl)cccc3-n3cccc32)cc1` [drawing 92], the IC50 against Cytochrome P450 1A2 is over 10 µM; on Cytochrome P450 2C19, 1.58 µM; against Cytochrome P450 2D6, over 10 µM; against Cytochrome P450 2C9 it was over 10 µM; at Cytochrome P450 2C8, over 10 µM.

Turning to `CS(=O)(=O)c1ccc(C2=NCc3c(Cl)cccc3-n3cccc32)cc1` [drawing 93], the IC50 was over 10 µM against Cytochrome P450 1A2; over 10 µM against Cytochrome P450 2C19; 7.59 µM against Cytochrome P450 2D6; over 10 µM against Cytochrome P450 2C9; over 10 µM on Cytochrome P450 2C8.

`CC(O)c1ccc(C2NCc3c(Cl)cccc3-n3cccc32)cc1` (centres unmarked) [drawing 97]: the IC50 at Cytochrome P450 1A2 was over 10 µM; on Cytochrome P450 2C19, 5.13 µM; at Cytochrome P450 2D6, over 10 µM; on Cytochrome P450 2C9, over 10 µM; on Cytochrome P450 2C8, over 10 µM.

With `CC(=O)c1cccc(C2NCc3c(Cl)cccc3-n3cccc32)c1` (centres unmarked) [drawing 99], the IC50 was over 10 µM against Cytochrome P450 1A2; 0.158 µM against Cytochrome P450 2C19; 3.16 µM on Cytochrome P450 2D6; 1.58 µM on Cytochrome P450 2C9; 7.94 µM on Cytochrome P450 2C8.

Turning to `CC(=O)c1ccc(C2NCc3ccc(Cl)cc3-n3cccc32)cc1` (centres unmarked) [drawing 101], the IC50 against Cytochrome P450 1A2 was over 10 µM; on Cytochrome P450 2C19, 3.16 µM; at Cytochrome P450 2D6, 7.94 µM; at Cytochrome P450 2C9, 6.31 µM; at Cytochrome P450 2C8 it was 7.94 µM.

Source of the values: patent US9040523B2, “Antifungal 5,6-dihydro-4H-pyrrolo[1,2-α][1,4]-benzodiazepines and 6H-pyrrolo[1,2-α][1,4]benzodiazepines substituted with benzene derivatives” (JANSSEN PHARMACEUTICA NV, priority 2010, dated 2015).
